Test results reported in publication PMC11022729 (Advanced Science, 2024).
pKi: −log10 of the molar value.

Experiments:
histamine H2 receptor = histamine H2 receptor (Homo sapiens, UniProt P25021); assay: SafetyScreen44 panel; conditions: read-out: binding inhibition
Procedure: (§1) Measurements were performed in duplicate.
(§2) channel, which were obtainedfrom ratspecimens).
(§3) in brackets) specific for each target.

muscarinic M2 receptor = muscarinic M2 receptor (Homo sapiens, UniProt P08172); assay: SafetyScreen44 panel; conditions: read-out: binding inhibition
Procedure: as §1, §2, §3

serotonin 5-HT3 receptor = serotonin 5-HT3 receptor (Homo sapiens, UniProt P46098); assay: SafetyScreen44 panel; conditions: read-out: binding inhibition
Sequence of serotonin 5-HT3 receptor (P46098 24-478): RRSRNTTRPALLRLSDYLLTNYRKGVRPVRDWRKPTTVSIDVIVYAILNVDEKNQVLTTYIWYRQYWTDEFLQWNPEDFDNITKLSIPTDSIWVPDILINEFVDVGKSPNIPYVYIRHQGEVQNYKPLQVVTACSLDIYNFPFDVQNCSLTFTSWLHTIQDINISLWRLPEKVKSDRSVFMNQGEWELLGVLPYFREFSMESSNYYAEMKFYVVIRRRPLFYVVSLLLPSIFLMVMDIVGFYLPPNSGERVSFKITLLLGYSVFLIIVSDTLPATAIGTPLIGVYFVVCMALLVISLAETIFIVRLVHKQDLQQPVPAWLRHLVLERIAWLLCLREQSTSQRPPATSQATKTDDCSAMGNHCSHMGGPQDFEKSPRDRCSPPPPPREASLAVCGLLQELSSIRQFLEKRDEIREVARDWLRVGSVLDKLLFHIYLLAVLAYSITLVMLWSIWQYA
Procedure: as §1, §2, §3

[1] = target: T1, serotonin 5-HT1B receptor (Homo sapiens, UniProt P28222); assay: SafetyScreen44 panel; conditions: read-out: binding inhibition
T1 construct: purchased Eurofins Cerep P270
T1 sequence (P28222 whole entry): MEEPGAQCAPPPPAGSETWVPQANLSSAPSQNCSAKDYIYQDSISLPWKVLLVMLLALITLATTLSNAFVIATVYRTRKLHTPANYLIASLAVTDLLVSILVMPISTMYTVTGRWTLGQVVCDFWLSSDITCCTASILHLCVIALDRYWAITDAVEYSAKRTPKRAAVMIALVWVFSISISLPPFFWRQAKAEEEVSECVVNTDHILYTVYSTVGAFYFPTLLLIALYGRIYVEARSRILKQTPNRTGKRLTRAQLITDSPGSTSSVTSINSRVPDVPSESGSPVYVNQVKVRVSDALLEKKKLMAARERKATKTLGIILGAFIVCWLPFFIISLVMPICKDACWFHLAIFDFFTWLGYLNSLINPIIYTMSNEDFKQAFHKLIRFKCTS
Procedure: as §1, §2, §3

[2] = target: human ether-à-go-go (hERG) potassium channel (Homo sapiens, UniProt Q12809); assay: SafetyScreen44 panel; conditions: 10 µM
Procedure: as §1, §2, §3

[3] = target: T2, serotonin 5-HT1A receptor (Homo sapiens, UniProt P08908); assay: SafetyScreen44 panel; conditions: read-out: binding inhibition
T2 construct: purchased Eurofins Cerep P270
Procedure: as §1, §2, §3

[4] = Metabolic stability assay in rat liver microsomes; format: in vitro ADME; conditions: for metabolic stability: 10 µM, 15, 30 and 60 min
Procedure: We next assessed the metabolic stability of these compounds (10 µM) in rat liver microsomes (Figure 2A). […] Therefore, we assumed that the occupation of metabolically labile sites at the aromatic core and the reduction in electron density at the oxidizable nitrogen atom of the piperazine ring might increase metabolic stability. Indeed, both the introduction of fluorine at R^2 and the introduction of an electron‐withdrawing carboxylic acid linker at R^3 improved metabolic stability. The substitution of chlorine with a trifluoromethyl group at R^1 was also beneficial. In contrast, homopiperazine and hydroxy linkers were metabolically labile.
The solubilized test compound (5 µL, final concentration 10 µM) was preincubated at 37 °C in 432 µL phosphate buffer (0.1 M, pH 7.4) together with 50 µL NADPH regenerating system (30 mM glucose‐6‐phosphate, 4 U mL^−1 glucose 6‐phosphate dehydrogenase, 10 mM NADP, and 30 mM MgCl2). After 5 min, the reaction started upon the addition of 13 µL of microsome mix from the liver of Sprague‐Dawley rats (Invitrogen; 20 mg protein per mL in 0.1 M phosphate buffer) in a shaking water bath at 37 °C. The reaction was stopped by adding 500 µL ice‐cold methanol at 0, 15, 30, and 60 min. The samples were centrifuged at 5000 × g for 5 min at 4 °C and the test compound was quantified from the supernatants by HPLC; the composition of the mobile phase was adapted to the test compound in a range of MeOH 40−90% and water (0.1% formic acid) 10−60%. Flow rate: 1 mL min^−1; stationary phase: Purospher STAR, RP18, 5 µm, 125 × 4; precolumn: Purospher STAR, RP18, 5 µm, 4 × 4; detection wavelength: 254 and 280 nm; injection volume: 50 µL. Control samples were used to evaluate the stability of the test compounds in the reaction mixture. The first control was without NADPH, which is needed for the enzymatic activity of the microsomes, the second control was with inactivated microsomes (incubated for 20 min at 90 °C), and the third control was without the test compound (to determine the baseline). The amounts of test compounds were quantified using an external calibration curve.

Na+ channel = assay: SafetyScreen44 panel; conditions: 10 µM
adrenergic α1A receptor = target: T3, adrenergic α1A receptor (Homo sapiens, UniProt P35348); assay: SafetyScreen44 panel; format: binding
T3 construct: purchased Eurofins Cerep P270
T3 sequence (P35348 whole entry): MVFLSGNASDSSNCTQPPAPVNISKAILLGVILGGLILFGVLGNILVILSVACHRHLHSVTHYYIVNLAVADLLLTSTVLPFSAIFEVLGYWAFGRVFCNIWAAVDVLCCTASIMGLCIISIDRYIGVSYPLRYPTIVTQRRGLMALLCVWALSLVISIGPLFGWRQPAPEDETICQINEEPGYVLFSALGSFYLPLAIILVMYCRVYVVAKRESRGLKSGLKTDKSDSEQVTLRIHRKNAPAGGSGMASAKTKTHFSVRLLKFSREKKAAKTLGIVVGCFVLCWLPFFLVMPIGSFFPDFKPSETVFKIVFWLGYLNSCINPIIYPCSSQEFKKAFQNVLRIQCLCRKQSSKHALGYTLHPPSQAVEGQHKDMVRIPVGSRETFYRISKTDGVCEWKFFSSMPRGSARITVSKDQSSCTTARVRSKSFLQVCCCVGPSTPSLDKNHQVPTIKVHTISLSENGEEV
Procedure: as §1, §2, §3

[5] = target: T4, norepinephrine transporter (NET) (Homo sapiens, UniProt P23975); assay: SafetyScreen44 panel; format: binding
T4 construct: purchased Eurofins Cerep P270
T4 sequence (P23975 whole entry): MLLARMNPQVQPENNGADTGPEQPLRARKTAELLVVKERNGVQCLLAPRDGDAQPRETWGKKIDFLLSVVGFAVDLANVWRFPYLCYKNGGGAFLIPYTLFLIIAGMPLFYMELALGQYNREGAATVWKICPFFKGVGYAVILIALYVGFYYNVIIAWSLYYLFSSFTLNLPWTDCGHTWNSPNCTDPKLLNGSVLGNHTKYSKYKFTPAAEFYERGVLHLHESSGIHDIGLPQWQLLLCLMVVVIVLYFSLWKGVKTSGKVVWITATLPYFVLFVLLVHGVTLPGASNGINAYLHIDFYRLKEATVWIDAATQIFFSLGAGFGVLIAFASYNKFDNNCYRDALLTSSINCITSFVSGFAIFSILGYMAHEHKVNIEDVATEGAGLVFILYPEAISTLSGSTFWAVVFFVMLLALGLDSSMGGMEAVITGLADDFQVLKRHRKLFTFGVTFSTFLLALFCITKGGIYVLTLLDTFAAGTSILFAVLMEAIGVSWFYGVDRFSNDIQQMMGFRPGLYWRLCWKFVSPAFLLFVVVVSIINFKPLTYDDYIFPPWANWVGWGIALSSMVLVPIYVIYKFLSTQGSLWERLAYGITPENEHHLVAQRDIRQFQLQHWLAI
Procedure: as §1, §2, §3

[6] = target: T5, serotonin 5-HT2B receptor (Homo sapiens, UniProt P41595); assay: SafetyScreen44 panel; format: binding
T5 construct: purchased Eurofins Cerep P270
T5 sequence (P41595 whole entry): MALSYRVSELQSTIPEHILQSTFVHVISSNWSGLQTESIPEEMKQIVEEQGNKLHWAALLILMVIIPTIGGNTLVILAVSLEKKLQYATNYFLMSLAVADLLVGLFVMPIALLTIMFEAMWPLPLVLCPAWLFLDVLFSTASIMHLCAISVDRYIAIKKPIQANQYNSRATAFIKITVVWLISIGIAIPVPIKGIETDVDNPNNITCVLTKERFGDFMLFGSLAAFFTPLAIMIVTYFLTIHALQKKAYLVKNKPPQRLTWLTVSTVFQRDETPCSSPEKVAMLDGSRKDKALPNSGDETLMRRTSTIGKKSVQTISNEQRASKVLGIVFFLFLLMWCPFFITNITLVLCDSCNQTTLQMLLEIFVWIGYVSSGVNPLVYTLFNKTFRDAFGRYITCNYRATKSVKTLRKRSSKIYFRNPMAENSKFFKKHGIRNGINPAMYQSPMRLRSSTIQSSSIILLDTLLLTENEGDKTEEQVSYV
Procedure: as §1, §2, §3

dopamine D2S receptor = target: T6, dopamine D2S receptor (Homo sapiens, UniProt P14416); assay: SafetyScreen44 panel; format: binding
T6 construct: purchased Eurofins Cerep P270
T6 sequence (P14416 1-414 isoform P14416-2): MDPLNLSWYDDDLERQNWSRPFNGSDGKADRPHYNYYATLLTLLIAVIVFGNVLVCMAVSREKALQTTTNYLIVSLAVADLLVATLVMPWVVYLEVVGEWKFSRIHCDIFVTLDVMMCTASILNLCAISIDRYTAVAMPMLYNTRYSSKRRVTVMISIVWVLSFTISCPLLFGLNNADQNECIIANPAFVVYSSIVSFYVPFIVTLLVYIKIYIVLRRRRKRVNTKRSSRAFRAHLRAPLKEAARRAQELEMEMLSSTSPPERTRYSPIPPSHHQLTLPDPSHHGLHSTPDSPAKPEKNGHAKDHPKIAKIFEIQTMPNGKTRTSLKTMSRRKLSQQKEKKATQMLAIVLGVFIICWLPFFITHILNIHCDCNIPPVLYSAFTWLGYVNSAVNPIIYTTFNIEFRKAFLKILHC
Procedure: as §1, §2, §3

dopamine D1 receptor = target: T7, dopamine D1 receptor (Homo sapiens, UniProt P21728); assay: SafetyScreen44 panel; format: binding
T7 construct: purchased Eurofins Cerep P270
T7 sequence (P21728 whole entry): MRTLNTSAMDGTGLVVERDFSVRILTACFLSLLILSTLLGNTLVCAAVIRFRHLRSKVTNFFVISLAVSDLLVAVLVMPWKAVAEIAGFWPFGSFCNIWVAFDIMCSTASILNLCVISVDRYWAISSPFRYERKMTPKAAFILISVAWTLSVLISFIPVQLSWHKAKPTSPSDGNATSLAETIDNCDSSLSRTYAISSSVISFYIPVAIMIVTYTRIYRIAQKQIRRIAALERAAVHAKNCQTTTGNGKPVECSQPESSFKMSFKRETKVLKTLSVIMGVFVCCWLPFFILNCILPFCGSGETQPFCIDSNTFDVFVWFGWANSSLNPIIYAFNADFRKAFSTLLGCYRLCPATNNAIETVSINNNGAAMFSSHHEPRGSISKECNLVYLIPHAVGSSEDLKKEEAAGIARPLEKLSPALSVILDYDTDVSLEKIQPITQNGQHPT
Procedure: as §1, §2, §3

[7] = target: T8, serotonin 5-HT2A receptor (Homo sapiens, UniProt P28223); assay: SafetyScreen44 panel; format: binding
T8 construct: purchased Eurofins Cerep P270
T8 sequence (P28223 whole entry): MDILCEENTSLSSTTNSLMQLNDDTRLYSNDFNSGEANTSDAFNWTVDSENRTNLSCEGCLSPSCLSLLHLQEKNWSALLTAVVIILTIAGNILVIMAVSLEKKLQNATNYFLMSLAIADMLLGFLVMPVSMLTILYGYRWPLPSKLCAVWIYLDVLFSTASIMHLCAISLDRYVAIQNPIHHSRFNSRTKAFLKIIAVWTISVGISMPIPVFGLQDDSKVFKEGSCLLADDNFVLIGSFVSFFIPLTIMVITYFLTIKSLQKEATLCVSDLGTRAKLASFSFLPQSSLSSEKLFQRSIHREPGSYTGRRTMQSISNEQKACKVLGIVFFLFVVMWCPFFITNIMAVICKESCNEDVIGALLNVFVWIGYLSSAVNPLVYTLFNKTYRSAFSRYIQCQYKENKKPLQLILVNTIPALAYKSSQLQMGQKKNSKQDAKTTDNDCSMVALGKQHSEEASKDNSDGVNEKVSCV
Procedure: as §1, §2, §3

[8] = target: T9, serotonin transporter (SET) (Homo sapiens, UniProt P31645); assay: SafetyScreen44 panel; format: binding
T9 construct: purchased Eurofins Cerep P270
T9 sequence (P31645 whole entry): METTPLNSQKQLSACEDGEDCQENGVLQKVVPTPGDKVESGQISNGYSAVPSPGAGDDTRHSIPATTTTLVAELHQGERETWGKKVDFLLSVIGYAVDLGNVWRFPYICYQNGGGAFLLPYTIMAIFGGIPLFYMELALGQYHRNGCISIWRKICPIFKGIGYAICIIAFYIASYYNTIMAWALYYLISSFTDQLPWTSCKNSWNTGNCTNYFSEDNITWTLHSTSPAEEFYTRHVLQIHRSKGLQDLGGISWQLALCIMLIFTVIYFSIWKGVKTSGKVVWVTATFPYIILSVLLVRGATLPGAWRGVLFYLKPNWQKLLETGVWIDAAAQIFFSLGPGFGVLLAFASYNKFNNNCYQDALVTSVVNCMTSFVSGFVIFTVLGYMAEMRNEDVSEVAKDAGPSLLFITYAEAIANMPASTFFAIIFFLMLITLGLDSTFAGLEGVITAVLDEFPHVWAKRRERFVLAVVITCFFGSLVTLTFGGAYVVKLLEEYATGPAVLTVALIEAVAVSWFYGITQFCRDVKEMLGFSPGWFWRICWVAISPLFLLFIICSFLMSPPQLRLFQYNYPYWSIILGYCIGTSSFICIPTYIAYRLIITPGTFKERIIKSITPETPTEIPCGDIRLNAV
Procedure: as §1, §2, §3

[9] = test system: voltage-dependent Na+ channels in IB4-binding sensory neurons; assay: Tetrodotoxin-resistant Na+ currents in DRG neurons (patch-clamp); format: cell-based, mouse; conditions: 50 µM
histamine H1 receptor [10] = target: T10, histamine H1 receptor (Homo sapiens, UniProt P35367); assay: SafetyScreen44 panel; format: binding; parameters: purchased Eurofins Cerep P270; conditions: 10 µM
T10 sequence (P35367 whole entry): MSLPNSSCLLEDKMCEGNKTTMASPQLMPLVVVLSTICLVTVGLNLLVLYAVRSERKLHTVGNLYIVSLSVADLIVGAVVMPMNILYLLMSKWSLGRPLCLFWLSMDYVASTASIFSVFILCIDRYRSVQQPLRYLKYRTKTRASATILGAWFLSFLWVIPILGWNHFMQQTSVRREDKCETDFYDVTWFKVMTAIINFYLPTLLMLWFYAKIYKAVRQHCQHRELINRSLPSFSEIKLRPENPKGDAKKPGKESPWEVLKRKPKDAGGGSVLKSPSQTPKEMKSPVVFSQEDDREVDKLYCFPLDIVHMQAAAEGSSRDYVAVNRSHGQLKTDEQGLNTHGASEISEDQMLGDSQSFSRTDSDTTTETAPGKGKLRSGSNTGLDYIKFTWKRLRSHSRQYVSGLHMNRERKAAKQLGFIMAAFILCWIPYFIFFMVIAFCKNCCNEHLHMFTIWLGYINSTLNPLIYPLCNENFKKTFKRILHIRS
Procedure: as §1, §2, §3

histamine H1 receptor [11] = target: T10, histamine H1 receptor; assay: [3H]-pyrilamine competition binding assay; parameters: expressed in transfected cells; host or cells: CHO
Procedure: For membrane preparations of CHO cells stably expressing the human histamine H1 receptor (H1R), cells were washed and harvested with PBS buffer, homogenized by sonication (3 × 15 s) in ice‐cold HEPES‐H1R binding buffer (20 mM HEPES, 10 mM MgCl2, and 100 mM NaCl), followed by a centrifugation step (20 000 × g, 30 min, 4 °C). The resulting cell pellet was resuspended in binding buffer and homogenized using a hand potter. Membrane extracts were stored at −80 °C. Prior to use, the membranes were handled as described for D2R/D3R. […] Assays were performed at least in duplicates with appropriate concentrations between 0.1 nM and 100 µM of the test compound. […] The subsequent procedure was performed as described for D2R/D3R.

mice = assay: DNFB model of allergic contact dermatitis (persistent itch); format: in vivo, mouse; conditions: i.p. after the second DNFB exposure, vs vehicle
Procedure: We next assessed the efficacy of compound 6 in the treatment of chronic itching. […] These findings are important because they indicate that Slack activators can reduce existing itching.
To induce persistent itch, a model of allergic contact dermatitis^[ [32] ^] was used. The fur on the dorsolateral aspect of the neck was shaved under brief isoflurane anesthesia. Three to four days later, the shaved skin area was exposed to 100 µL of 0.15% 2,4‐dinitrofluorobenzene (DNFB) in acetone/olive oil (3:1). After 10–11 days, the skin was shaved again, and the DNFB solution was applied 3–4 days later (i.e., two painting sessions 14 days apart). Ninety minutes after the second DNFB application, the mice were habituated to a plexiglass cylinder (30 cm diameter) for 15 min. Compound 6 hydrochloride or vehicle was administered i.p., and 15 min later, spontaneous scratching was recorded over 30 min by videotaping.

CN1CCN(C2=Nc3ccccc3Oc3ccc(Cl)cc32)CC1 [Loxapine, reference compound]
inhibition at 10 µM (histamine H2 receptor): > 50% | inhibition at 10 µM (muscarinic M2 receptor): > 50% | inhibition at 10 µM (serotonin 5-HT3 receptor): > 50% | inhibition at 10 µM [1]: > 50% | binding [2]: did not measurably bind | inhibition at 10 µM [3]: > 50% | metabolic stability [4]: metabolized rapidly | drug remaining unmodified ([4]; 10 µM, after 15 min): 6% | binding inhibition (Na+ channel): higher than 50% | inhibition at 10 µM (adrenergic α1A receptor; read-out: binding inhibition): > 50% | inhibition at 10 µM ([5]; read-out: binding inhibition): > 50% | inhibition at 10 µM ([6]; read-out: binding inhibition): > 50% | inhibition at 10 µM (dopamine D2S receptor; read-out: binding inhibition): > 50% | inhibition at 10 µM (dopamine D1 receptor; read-out: binding inhibition): > 50% | inhibition at 10 µM ([7]; read-out: binding inhibition): > 50% | inhibition at 10 µM ([8]; read-out: binding inhibition): > 50%

O=C(O)COCCN1CCN(C2=Nc3ccccc3Oc3ccc(Cl)cc32)CC1 [Compound 6]
tetrodotoxin-resistant Na+ currents [9]: did not affect | binding inhibition (histamine H1 receptor [10]): substantial binding | metabolic stability [4]: highest metabolic stabilities | affinity for histamine H1 receptors (histamine H1 receptor [11]): low affinity | pKi (histamine H1 receptor [11]; mean [CI 95%]): 6.24 | number of head shakes (mice): significantly reduced | number of scratching bouts (mice): significantly reduced | binding inhibition (adrenergic α1A receptor; 10 µM): substantial binding | binding inhibition ([5]; 10 µM): substantial binding | binding inhibition ([6]; 10 µM): substantial binding | binding inhibition (dopamine D2S receptor; 10 µM): substantial binding | binding inhibition (dopamine D1 receptor; 10 µM): substantial binding | binding inhibition ([7]; 10 µM): substantial binding | binding inhibition ([8]; 10 µM): substantial binding
